Columns and labels:
Adenosine receptor A2a = Adenosine receptor A2a (Rattus norvegicus, UniProt P30543); assay: biochemical
Description: Binding affinity towards adenosine A2A receptor in rat brain striatum

Adenosine receptor A1 = target: T1, Adenosine receptor A1 (Rattus norvegicus, UniProt P25099); assay: biochemical
T1 sequence (P25099 whole entry): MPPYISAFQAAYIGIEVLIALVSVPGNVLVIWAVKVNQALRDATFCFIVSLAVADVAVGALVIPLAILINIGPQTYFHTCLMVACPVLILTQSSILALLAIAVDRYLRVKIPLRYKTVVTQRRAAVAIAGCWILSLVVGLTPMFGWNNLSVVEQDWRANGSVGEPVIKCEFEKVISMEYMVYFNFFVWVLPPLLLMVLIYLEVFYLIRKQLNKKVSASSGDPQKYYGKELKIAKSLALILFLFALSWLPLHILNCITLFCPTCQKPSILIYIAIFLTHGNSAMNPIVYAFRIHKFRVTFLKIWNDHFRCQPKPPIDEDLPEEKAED
Description: Binding affinity towards adenosine A1 receptor in rat brain cortex

Chain of Adenosine receptor A2a (P30543 whole entry): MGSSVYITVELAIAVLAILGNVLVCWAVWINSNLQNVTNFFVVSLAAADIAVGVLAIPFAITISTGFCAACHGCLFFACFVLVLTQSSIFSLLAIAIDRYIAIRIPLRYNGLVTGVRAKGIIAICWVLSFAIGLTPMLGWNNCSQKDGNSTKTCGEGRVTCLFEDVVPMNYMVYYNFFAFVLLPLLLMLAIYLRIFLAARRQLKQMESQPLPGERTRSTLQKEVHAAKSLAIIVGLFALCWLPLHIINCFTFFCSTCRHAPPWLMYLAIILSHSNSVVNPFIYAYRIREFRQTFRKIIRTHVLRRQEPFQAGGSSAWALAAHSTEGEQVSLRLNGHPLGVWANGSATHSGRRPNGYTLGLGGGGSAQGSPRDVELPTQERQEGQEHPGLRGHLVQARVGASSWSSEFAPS

Row | Compound | Ki (Adenosine receptor A2a) | Ki (Adenosine receptor A1)
1 | Nc1nc(OCC2CCCCC2)nc2c1ncn2C1O[C@H](CO)[C@@H](O)[C@H]1O (some centres undefined) | 3200 nM | 3000 nM
2 | CCCCCC#Cc1nc(N)c2ncn([C@@H]3O[C@H](CO)[C@@H](O)[C@H]3O)c2n1 | 5.4 nM | 
3 | Nc1nc(OCCc2ccc(Cl)cc2)nc2c1ncn2[C@@H]1O[C@H](CO)[C@@H](O)[C@H]1O [SONEDENOSON] | 22 nM | 89 nM
4 | CCNC(=O)[C@H]1OC(n2cnc3c(N)nc(NCCc4ccc(Cl)cc4)nc32)[C@H](O)[C@@H]1O (some centres undefined) | 7.5 nM | 
5 | CCCCc1nc(N)c2ncn(C3O[C@H](CO)[C@@H](O)[C@H]3O)c2n1 (some centres undefined) | 2.8 nM | 126 nM
6 | CCNC(=O)[C@H]1OC(n2cnc3c(N)nc(CC4CCC(C(=O)O)CC4)nc32)[C@H](O)[C@@H]1O (some centres undefined) | 20.1 nM | 292 nM
7 | COc1ccc(CCOc2nc(N)c3ncn(C4O[C@H](CO)[C@@H](O)[C@H]4O)c3n2)cc1 (some centres undefined) | 32 nM | 480 nM
8 | Nc1nc(OCc2ccccc2)nc2c1ncn2C1O[C@H](CO)[C@@H](O)[C@H]1O (some centres undefined) | 2200 nM | 600 nM
9 | CCCc1nc(N)c2ncn(C3O[C@H](CO)[C@@H](O)[C@H]3O)c2n1 (some centres undefined) | 7.5 nM | 154 nM
10 | Nc1nc(OCCC2CCCC2)nc2c1ncn2C1O[C@H](CO)[C@@H](O)[C@H]1O (some centres undefined) | 120 nM | 1600 nM
11 | Nc1nc(OC2CCCC2)nc2c1ncn2[C@@H]1O[C@H](CO)[C@@H](O)[C@H]1O | 1000 nM | 14000 nM
12 | Nc1nc(OCCc2ccc(F)cc2)nc2c1ncn2[C@@H]1O[C@H](CO)[C@@H](O)[C@H]1O | 97 nM | 500 nM
13 | CCc1nc(N)c2ncn(C3O[C@H](CO)[C@@H](O)[C@H]3O)c2n1 (some centres undefined) | 21.2 nM | 186 nM
14 | Nc1nc(OCCCCc2ccccc2)nc2c1ncn2[C@@H]1O[C@H](CO)[C@@H](O)[C@H]1O | 170 nM | 2400 nM
15 | Nc1nc(C#CCCC2CCCCC2)nc2c1ncn2C1O[C@H](CO)[C@@H](O)[C@H]1O (some centres undefined) | 26 nM | 
16 | CCC(CC)COc1nc(N)c2ncn(C3O[C@H](CO)[C@@H](O)[C@H]3O)c2n1 (some centres undefined) | 4600 nM | 2700 nM
17 | CC(C)COc1nc(N)c2ncn(C3O[C@H](CO)[C@@H](O)[C@H]3O)c2n1 (some centres undefined) | 700 nM | 2600 nM
18 | Nc1nc(OCCCC2CCCCC2)nc2c1ncn2C1O[C@H](CO)[C@@H](O)[C@H]1O (some centres undefined) | 22 nM | 2800 nM
19 | CCCCCCOc1nc(N)c2ncn(C3O[C@H](CO)[C@@H](O)[C@H]3O)c2n1 (some centres undefined) | 160 nM | 890 nM
20 | Cc1ccc(CCOc2nc(N)c3ncn(C4O[C@H](CO)[C@@H](O)[C@H]4O)c3n2)cc1 (some centres undefined) | 11 nM | 49 nM
21 | CCNC(=O)[C@H]1OC(n2cnc3c(N)nc(CC4CCC(CO)CC4)nc32)[C@H](O)[C@@H]1O (some centres undefined) | 0.48 nM | 0.84 nM
22 | Nc1nc(C#CCCC2CCCC2)nc2c1ncn2C1O[C@H](CO)[C@@H](O)[C@H]1O (some centres undefined) | 3.4 nM | 
23 | Nc1nc(OCCC2CCCCC2)nc2c1ncn2[C@@H]1O[C@H](CO)[C@@H](O)[C@H]1O | 22 nM | 1600 nM
24 | CCNC(=O)[C@H]1OC(n2cnc3c(N)nc(C#CNCCc4ccc(F)cc4)nc32)[C@H](O)[C@@H]1O (some centres undefined) | 7.7 nM | 1180 nM

Row | Compound | Ki (Adenosine receptor A2a) | Ki (Adenosine receptor A1)
25 | Nc1nc(C#CCCc2ccccc2)nc2c1ncn2[C@@H]1O[C@H](CO)[C@@H](O)[C@H]1O | 37 nM | 
26 | CCCOCc1nc(N)c2ncn(C3O[C@H](CO)[C@@H](O)[C@H]3O)c2n1 (some centres undefined) | 10.6 nM | 
27 | CCNC(=O)[C@H]1OC(n2cnc3c(N)nc(C#CN(C)CCc4ccccc4)nc32)[C@H](O)[C@@H]1O (some centres undefined) | 71 nM | 12100 nM
28 | Nc1nc(OCCc2cccc(F)c2)nc2c1ncn2[C@@H]1O[C@H](CO)[C@@H](O)[C@H]1O (stereo in doubt; 92) | 110 nM | 180 nM
29 | CCOc1nc(N)c2ncn([C@@H]3O[C@H](CO)[C@@H](O)[C@H]3O)c2n1 | 1500 nM | 1300 nM
30 | Nc1nc(OCCc2ccccc2Cl)nc2c1ncn2C1O[C@H](CO)[C@@H](O)[C@H]1O (some centres undefined) | 56 nM | 520 nM
31 | CCNC(=O)[C@H]1OC(n2cnc3c(N)nc(C#CNCCc4ccc(CC(=O)OC)cc4)nc32)[C@H](O)[C@@H]1O (some centres undefined) | 9 nM | 1260 nM
32 | CCCCCOc1nc(N)c2ncn(C3O[C@H](CO)[C@@H](O)[C@H]3O)c2n1 (some centres undefined) | 150 nM | 460 nM
33 | Nc1nc(OCCCCCc2ccccc2)nc2c1ncn2C1O[C@H](CO)[C@@H](O)[C@H]1O (some centres undefined) | 53 nM | 960 nM
34 | CCNC(=O)[C@H]1OC(n2cnc3c(N)nc(C#CNCc4ccccc4)nc32)[C@H](O)[C@@H]1O (some centres undefined) | 1130 nM | 8600 nM
35 | C#Cc1nc(N)c2ncn(C3O[C@H](CO)[C@@H](O)[C@H]3O)c2n1 (some centres undefined) | 37.6 nM | 
36 | Nc1nc(OCCc2cccc(F)c2)nc2c1ncn2[C@@H]1O[C@H](CO)[C@@H](O)[C@H]1O (stereo in doubt; 24) | 58 nM | 150 nM
37 | CCNC(=O)[C@H]1OC(n2cnc3c(N)nc(C#CNCCc4ccc(CC(=O)O)cc4)nc32)[C@H](O)[C@@H]1O (some centres undefined) | 45 nM | 4880 nM
38 | CC(C)(C)OC(=O)C1CCCN1C[C@@H](O)[C@H](Cc1ccccc1)NC(=O)[C@H](CC(N)=O)NC(=O)OCc1ccccc1 (some centres undefined) | 2.2 nM | 130 nM
39 | CCCCOc1nc(N)c2ncn(C3O[C@H](CO)[C@@H](O)[C@H]3O)c2n1 (some centres undefined) | 270 nM | 2500 nM
40 | Nc1nc(CCO)nc2c1ncn2C1O[C@H](CO)[C@@H](O)[C@H]1O (some centres undefined) | 40.1 nM | 81.4 nM
41 | CCCOCCc1nc(N)c2ncn(C3O[C@H](CO)[C@@H](O)[C@H]3O)c2n1 (some centres undefined) | 10.2 nM | 128 nM
42 | COCc1nc(N)c2ncn(C3O[C@H](CO)[C@@H](O)[C@H]3O)c2n1 (some centres undefined) | 88.1 nM | 38.1 nM
43 | Nc1nc(C#Cc2ccccc2)nc2c1ncn2[C@@H]1O[C@H](CO)[C@@H](O)[C@H]1O | 109 nM | 
44 | CCNC(=O)[C@H]1OC(n2cnc3c(N)nc(CC4CCC(C(=O)OC)CC4)nc32)[C@H](O)[C@@H]1O (some centres undefined) | 4.5 nM | 28.1 nM
45 | Nc1nc(OCCc2cccc(Cl)c2)nc2c1ncn2C1O[C@H](CO)[C@@H](O)[C@H]1O (some centres undefined) | 76 nM | 250 nM
46 | Nc1nc(C#CC2CCCCC2)nc2c1ncn2C1O[C@H](CO)[C@@H](O)[C@H]1O (some centres undefined) | 10 nM | 
47 | COc1ccc(CCOc2nc(N)c3ncn(C4O[C@H](CO)[C@@H](O)[C@H]4O)c3n2)cc1OC (some centres undefined) | 40 nM | 380 nM
48 | CC[C@H](COc1nc(N)c2ncn(C3O[C@H](CO)[C@@H](O)[C@H]3O)c2n1)c1ccccc1 (some centres undefined) | 430 nM | 2300 nM

Row | Compound | Ki (Adenosine receptor A2a) | Ki (Adenosine receptor A1)
49 | C[C@@H](CCOc1nc(N)c2ncn(C3O[C@H](CO)[C@H](O)[C@@H]3O)c2n1)c1ccccc1 (some centres undefined) | 1700 nM | 1600 nM
50 | Nc1nc(C#CC2CCCC2)nc2c1ncn2[C@@H]1O[C@H](CO)[C@@H](O)[C@H]1O | 12 nM | 
51 | Cc1ccccc1CCOc1nc(N)c2ncn(C3O[C@H](CO)[C@@H](O)[C@H]3O)c2n1 (some centres undefined) | 39 nM | 450 nM
52 | CC(C)Oc1nc(N)c2ncn(C3O[C@H](CO)[C@@H](O)[C@H]3O)c2n1 (some centres undefined) | 7400 nM | 20000 nM
53 | Cc1cccc(CCOc2nc(N)c3ncn(C4O[C@H](CO)[C@@H](O)[C@H]4O)c3n2)c1 (some centres undefined) | 61 nM | 140 nM
54 | Nc1nc(OCCCCC2CCCCC2)nc2c1ncn2C1O[C@H](CO)[C@@H](O)[C@H]1O (some centres undefined) | 18 nM | 1100 nM
55 | CC(C)CCCOc1nc(N)c2ncn(C3O[C@H](CO)[C@@H](O)[C@H]3O)c2n1 (some centres undefined) | 130 nM | 2100 nM
56 | COc1cc(CCOc2nc(N)c3ncn(C4O[C@H](CO)[C@@H](O)[C@H]4O)c3n2)cc(OC)c1OC (some centres undefined) | 330 nM | 5000 nM
57 | Nc1nc(OCCCc2ccccc2)nc2c1ncn2[C@@H]1O[C@H](CO)[C@@H](O)[C@H]1O | 1200 nM | 3600 nM
58 | CCNC(=O)[C@H]1OC(n2cnc3c(N)nc(CC4CCC(COC(C)=O)CC4)nc32)[C@H](O)[C@@H]1O (some centres undefined) | 6.2 nM | 14 nM
59 | CCOCCCc1nc(N)c2ncn(C3O[C@H](CO)[C@@H](O)[C@H]3O)c2n1 (some centres undefined) | 12.8 nM | 244 nM
60 | Nc1nc(OCCO)nc2c1ncn2C1O[C@H](CO)[C@@H](O)[C@H]1O (some centres undefined) | 690 nM | 72 nM
61 | COc1cccc(CCOc2nc(N)c3ncn(C4O[C@H](CO)[C@@H](O)[C@H]4O)c3n2)c1 (some centres undefined) | 320 nM | 760 nM
62 | CCNC(=O)[C@H]1OC(n2cnc3c(N)nc(C#CNCCc4ccccc4)nc32)[C@H](O)[C@@H]1O (some centres undefined) | 9.7 nM | 473 nM
63 | COc1ccccc1CCOc1nc(N)c2ncn(C3O[C@H](CO)[C@@H](O)[C@H]3O)c2n1 (some centres undefined) | 36 nM | 190 nM
64 | Nc1nc(OCCc2ccccc2)nc2c1ncn2[C@@H]1O[C@H](CO)[C@@H](O)[C@H]1O | 17 nM | 130 nM
65 | CCCOc1nc(N)c2ncn(C3O[C@H](CO)[C@@H](O)[C@H]3O)c2n1 (some centres undefined) | 360 nM | 1200 nM
66 | Nc1nc(CO)nc2c1ncn2C1O[C@H](CO)[C@@H](O)[C@H]1O (some centres undefined) | 20.5 nM | 10.1 nM
67 | Nc1nc(Oc2ccccc2)nc2c1ncn2C1O[C@H](CO)[C@@H](O)[C@H]1O (some centres undefined) | 5700 nM | 3500 nM
68 | CCC(CC)CCOc1nc(N)c2ncn(C3O[C@H](CO)[C@@H](O)[C@H]3O)c2n1 (some centres undefined) | 530 nM | 1490 nM
69 | CCCCCCc1nc(N)c2ncn(C3O[C@H](CO)[C@@H](O)[C@H]3O)c2n1 (some centres undefined) | 12.1 nM | 202 nM
70 | CCNC(=O)[C@H]1OC(n2cnc3c(N)nc(NCCc4ccc(OCC(=O)O)cc4)nc32)[C@H](O)[C@@H]1O (some centres undefined) | 42 nM | 
